Counter-ions that a name gives are not always drawn.
Legend:
[1] = target: T1, Aurora1 (Aurora-B) (Homo sapiens, UniProt Q96GD4); assay: Aurora 1 (Aurora B) kinase radioactivity scintillation assay using nickel chelate Flash plates; assay type: biochemical; details: 10 nM Aurora-B (co expressed with C3 fragment of INCEP), 500 nM NuMA substrate, 1 μM ATP with [33P] ATP, 5 mM MgCl2, 30 minutes, 37° C.
T1 construct: Aurora-B: the full length protein (His tagged in N-terminal) has been co expressed in SF9 cells; poly-histidine (N); made in house; host or cells: SF9 cells
Protocol: (§1) Aurora 1 and 2 (Respectively. Aurora B and A)
(§2) The inhibitory effect of compounds with respect to the Aurora 1 and 2 kinases is determined with a radioactivity scintillation assay using nickel chelate.
(§3) The kinase activity of Aurora is measured by the phosphorylation of NuMA-histidine substrate in the presence of radiolabelled ATP ([^33P] ATP) using 96 well Flash plates where the nickel-chelate is linked to the surface of the microplate. The amount of ^33P incorporated to the substrate NuMA is proportional to the aurora activity.
(§4) The Flash plates used are nickel-chelate 96 well plates (Perkin Elmer, model SMP107).
(§5) The products to be evaluated are incubated in a 100 μl reaction volume per well in the presence of 10 nM of Aurora-B or Aurora-A, 500 nM of NuMA substrate in the following buffer: 50 mM of NaCl, 5 mM MgCl2, (Aurora-B) or 10 mM MgCl2 (Aurora-A) and 1 mM of DTT at 37° C.
(§6) 80 μL of enzyme/substrate incubation buffer is distributed in each well, followed by 10 μL of solution of compound to be measured with various concentrations. The reaction is started by adding 1 μM of ATP (final concentration) containing 0.2 μCi of [^33P] ATP (10 μL). After 30 minutes of incubation the reaction is stopped by removal of the reaction mixture and each well is washed twice with 300 μl of buffer Tris/HCl. The radioactivity is measured in each well using a Packard Top count scintillation counter instrument.
(§7) The enzymatic activity is expressed as counts per minute obtained in 30 minutes after subtraction of the background noise (reaction medium without enzyme). The measurement is expressed as percentage of inhibition of Aurora activity versus the control. To generate IC50 values, compounds of the invention are tested at different concentration and the percentage of inhibition are plotted as function of compound concentration, IC50s are calculated using the Xlfit 4 curve fitting software.

[2] = target: T2, Aurora2 (Aurora-A) (Homo sapiens, UniProt O14965); assay: Aurora 2 (Aurora A) kinase radioactivity scintillation assay using nickel chelate Flash plates; assay type: biochemical; details: 10 nM Aurora-A, 500 nM NuMA substrate, 1 μM ATP with [33P] ATP, 10 mM MgCl2, 30 minutes, 37° C.
T2 construct: Aurora-A: the full length recombinant protein including an N-terminal poly-histidine tail has been expressed in E. coli; poly-histidine (N); made in house; host or cells: E. coli
T2 sequence (O14965 1-403): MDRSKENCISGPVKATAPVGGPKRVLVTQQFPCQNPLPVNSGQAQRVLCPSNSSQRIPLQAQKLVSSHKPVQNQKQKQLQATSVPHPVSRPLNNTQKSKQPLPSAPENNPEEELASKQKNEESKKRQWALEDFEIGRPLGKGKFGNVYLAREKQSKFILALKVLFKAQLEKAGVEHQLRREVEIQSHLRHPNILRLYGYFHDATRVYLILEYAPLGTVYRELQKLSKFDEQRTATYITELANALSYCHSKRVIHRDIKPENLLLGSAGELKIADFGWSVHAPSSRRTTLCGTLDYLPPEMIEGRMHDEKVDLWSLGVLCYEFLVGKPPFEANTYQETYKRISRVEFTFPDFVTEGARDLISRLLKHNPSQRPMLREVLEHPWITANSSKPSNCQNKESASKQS
Protocol: as §1, §2, §3, §4, §5, §6, §7

T1 sequence (Q96GD4 whole entry, species assumed, the tested form may be a part): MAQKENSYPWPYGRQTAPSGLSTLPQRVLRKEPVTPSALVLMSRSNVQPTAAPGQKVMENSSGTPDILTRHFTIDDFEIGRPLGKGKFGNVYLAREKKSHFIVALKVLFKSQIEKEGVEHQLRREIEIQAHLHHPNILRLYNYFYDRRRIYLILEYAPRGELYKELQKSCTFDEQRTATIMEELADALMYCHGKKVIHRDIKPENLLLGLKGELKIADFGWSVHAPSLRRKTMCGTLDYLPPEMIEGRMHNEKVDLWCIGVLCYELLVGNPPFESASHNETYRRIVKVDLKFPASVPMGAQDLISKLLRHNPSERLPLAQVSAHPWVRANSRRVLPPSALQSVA
T1 sequence (Q9NQS7 821-918 partner limits assumed, species assumed): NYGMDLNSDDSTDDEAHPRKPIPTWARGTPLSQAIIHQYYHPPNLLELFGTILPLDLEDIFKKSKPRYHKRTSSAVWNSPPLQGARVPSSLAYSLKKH

SMILES | IC50 [1] [nM] | IC50 [2] [nM]
COc1ccc2nc(Oc3ccc(C4C5=C(CCCC5=O)Nc5n[nH]cc54)o3)[nH]c2c1 (stereo not drawn) [Example 77, 4-[5-(6-Methoxy-1H-benzimidazol-2-yloxy)-furan-2-yl]-2,4,6,7,8,9-hexahydro-pyrazolo[3,4-b]quinolin-5-one; compound with trifluoro-acetic acid] | 473 | 2480
COc1ccc(C2CC(=O)C3=C(C2)Nc2n[nH]cc2C3c2ccc(Sc3nc4ccccc4[nH]3)o2)cc1OC (stereo not drawn) [Example 36, 4-[5-(1H-Benzimidazol-2-ylsulfanyl)-furan-2-yl]-7-(3,4-dimethoxy-phenyl)-2,4,6,7,8,9-hexahydro-pyrazolo[3,4-b]quinolin-5-one; compound with trifluoro-acetic acid] | 11 | 41
CCOC(=O)c1[nH]cc2c1NC1=C(C(=O)CCC1)C2c1ccc(Sc2nc3cc(O)ccc3[nH]2)o1 (stereo not drawn) [Example 89, 9-[5-(5-Hydroxy-1H-benzoimidazol-2-ylsulfanyl)-furan-2-yl]-8-oxo-4,5,6,7,8,9-hexahydro-2H-pyrrolo[3,4-b]quinoline-3-carboxylic acid ethyl ester] | 31 | 355
O=C1CC(c2ccco2)CC2=C1C(c1ccc(Sc3nc4ccccc4[nH]3)o1)c1c[nH]nc1N2 (stereo not drawn) [Example 34, 4-[5-(1H-Benzimidazol-2-ylsulfanyl)-furan-2-yl]-7-furan-2-yl-2,4,6,7,8,9-hexahydro-pyrazolo[3,4-b]quinolin-5-one; compound with trifluoro-acetic acid] | 5 | 23
O=C1CNCC2=C1C(c1ccc(Sc3nc4ccccc4[nH]3)o1)c1c[nH]nc1N2 (stereo not drawn) [Example 20, 4-[5-(1H-Benzimidazol-2-ylsulfanyl)-furan-2-yl]-2,4,6,7,8,9-hexahydro-pyrazolo[3,4-b]-1,7-naphthyridin-5-one; compound with trifluoro-acetic acid] | 83 | –
O=C1CCCC2=C1C(c1ccc(Sc3nc4ccccc4[nH]3)o1)c1cn[nH]c1N2 (stereo not drawn) [Example 3, 4-[5-(1H-Benzimidazol-2-ylsulfanyl)-furan-2-yl]-1,4,6,7,8,9-hexahydro-pyrazolo[3,4-b]quinolin-5-one] | 8 | –
CCOC(=O)c1[nH]cc2c1NC1=C(C(=O)CNC1)C2c1ccc(Sc2nc3ccccc3[nH]2)o1 (stereo not drawn) [Example 104, 9-[5-(1H-Benzimidazol-2-ylsulfanyl)-furan-2-yl]-8-oxo-4,5,6,7,8,9-hexahydro-2H-pyrrolo[3,4-b]-1,7-naphthyridine-3-carboxylic acid ethyl ester; compound with trifluoro-acetic acid] | 7 | –
O=C1CCCC2=C1[C@H](c1ccc(Sc3nc4ccccc4[nH]3)o1)c1c[nH]nc1N2 (single isomer, unassigned) [120b (−), 4-[5-(1H-Benzimidazol-2-ylsulfanyl)-furan-2-yl]-1,4,6,7,8,9-hexahydro-pyrazolo[3,4-b]quinolin-5-one] | 75 | –
O=C1CCCC2=C1[C@H](c1ccc(Sc3nc4ccccc4[nH]3)o1)c1c[nH]nc1N2 (single isomer, unassigned) [120a (+), 4-[5-(1H-Benzimidazol-2-ylsulfanyl)-furan-2-yl]-1,4,6,7,8,9-hexahydro-pyrazolo[3,4-b]quinolin-5-one] | 4 | –
O=C1CCCC2=C1C(c1ccc(Sc3ccccn3)o1)c1c[nH]nc1N2 (stereo not drawn) [Example 40] | 3400 | –
Cn1c(Sc2ccc(C3C4=C(CNCC4=O)Nc4n[nH]cc43)o2)nc2ccccc21 (stereo not drawn) [Example 83, 4-[5-(1-Methyl-1H-benzimidazol-2-ylsulfanyl)-furan-2-yl]-2,4,6,7,8,9-hexahydro-pyrazolo[3,4-b]-1,7-naphthyridin-5-one; compound with trifluoro-acetic acid] | 5020 | –

Further lines, results first:

IC50 [1] [nM] | IC50 [2] [nM] | SMILES
7 | – | CCOC(=O)c1[nH]cc2c1NC1=C(C(=O)CCC1)C2c1ccc(Sc2nc3c(F)c(F)c(F)cc3[nH]2)o1 (stereo not drawn) [Example 122, 8-Oxo-9-[5-(4,5,6-trifluoro-1H-benzimidazol-2-ylsulfanyl)-furan-2-yl]-4,5,6,7,8,9-hexahydro-2H-pyrrolo[3,4-b]quinoline-3-carboxylic acid ethyl ester]
6 | 8 | CCOC(=O)c1[nH]cc2c1NC1=C(C(=O)CNC1)C2c1ccc(Sc2nc3cc(Cl)cc(C)c3[nH]2)o1 (stereo not drawn) [Example 138, 9-[5-(5-Chloro-7-methyl-1H-benzimidazol-2-ylsulfanyl)-furan-2-yl]-8-oxo-4,5,6,7,8,9-hexahydro-2H-pyrrolo[3,4-b]-1,7-naphthyridine-3-carboxylic acid ethyl ester hydrochloride]
17 | 63 | CCOC(=O)c1[nH]cc2c1NC1=C(C(=O)CC(C)(C)C1)C2c1ccc(Sc2nc3cc(C)ccc3[nH]2)o1 (stereo not drawn) [Example 109, 6,6-Dimethyl-9-[5-(5-methyl-1H-benzimidazol-2-ylsulfanyl)-furan-2-yl]-8-oxo-4,5,6,7,8,9-hexahydro-2H-pyrrolo[3,4-b]quinoline-3-carboxylic acid ethyl ester]
9 | 67 | CCOC(=O)c1[nH]cc2c1NC1=C(C(=O)CNC1)C2c1ccc(Sc2nc3cc(F)c(Cl)cc3[nH]2)o1 (stereo not drawn) [Example 147, 9-[5-(6-Chloro-5-fluoro-1H-benzimidazol-2-ylsulfanyl)-furan-2-yl]-8-oxo-4,5,6,7,8,9-hexahydro-2H-pyrrolo[3,4-b]-1,7-naphthyridine-3-carboxylic acid ethyl ester hydrochloride]
6 | – | CCOC(=O)c1[nH]cc2c1NC1=C(C(=O)CCC1)C2c1ccc(Sc2nc3cc(F)c(F)cc3[nH]2)o1 (stereo not drawn) [Example 114, 9-[5-(5,6-Difluoro-1H-benzimidazol-2-ylsulfanyl)-furan-2-yl]-8-oxo-4,5,6,7,8,9-hexahydro-2H-pyrrolo[3,4-b]quinoline-3-carboxylic acid ethyl ester]
93 | 566 | CCOC(=O)c1[nH]cc2c1NC1=C(C(=O)CN(C(=O)OC(C)(C)C)C1)C2c1ccc(Sc2nc3cc(OC(F)F)ccc3[nH]2)o1 (stereo not drawn) [Example 127]
11 | – | CCOC(=O)c1[nH]cc2c1NC1=C(C(=O)CCC1)C2c1ccc(Sc2nc3cc(F)ccc3[nH]2)o1 (stereo not drawn) [Example 148, 9-[5-(5-Fluoro-1H-benzimidazol-2-ylsulfanyl)-furan-2-yl]-8-oxo-4,5,6,7,8,9-hexahydro-2H-pyrrolo[3,4-b]quinoline-3-carboxylic acid ethyl ester]
31 | – | CCOC(=O)c1[nH]cc2c1NC1=C(C(=O)CC(C)(C)C1)C2c1ccc(Sc2nc3ccccc3[nH]2)o1 (stereo not drawn) [Example 106, 9-[5-(1H-Benzimidazol-2-ylsulfanyl)-furan-2-yl]-6,6-dimethyl-8-oxo-4,5,6,7,8,9-hexahydro-2H-pyrrolo[3,4-b]quinoline-3-carboxylic acid ethyl ester]
3 | – | CCOC(=O)c1[nH]cc2c1NC1=C(C(=O)CCC1)C2c1ccc(Sc2nc3c(F)cc(F)cc3[nH]2)o1 (stereo not drawn) [Example 142, 9-[5-(4,6-Difluoro-1H-benzimidazol-2-ylsulfanyl)-furan-2-yl]-8-oxo-4,5,6,7,8,9-hexahydro-2H-pyrrolo[3,4-b]quinoline-3-carboxylic acid ethyl ester]
7 | – | CCOC(=O)c1[nH]cc2c1NC1=C(C(=O)CCC1)C2c1ccc(Sc2nc3ccc(F)c(F)c3[nH]2)o1 (stereo not drawn) [Example 121, 9-[5-(6,7-Difluoro-1H-benzimidazol-2-ylsulfanyl)-furan-2-yl]-8-oxo-4,5,6,7,8,9-hexahydro-2H-pyrrolo[3,4-b]quinoline-3-carboxylic acid ethyl ester]
10 | – | CCOC(=O)c1[nH]cc2c1NC1=C(C(=O)CCC1)C2c1ccc(Sc2nc3cc(Cl)ccc3[nH]2)o1 (stereo not drawn) [Example 129, 9-[5-(5-Chloro-1H-benzimidazol-2-ylsulfanyl)-furan-2-yl]-8-oxo-4,5,6,7,8,9-hexahydro-2H-pyrrolo[3,4-b]quinoline-3-carboxylic acid ethyl ester]
